This is an account of results in PubChem BioAssay AID624129 (Sanford-Burnham Center for Chemical Genomics, 2012).

What is called IC50 is the midpoint of a concentration-inhibition curve. The term inhibition denotes the relative decrease from the control value, in per cent. Read a low inhibition as little suppression.

The source made the active and inactive calls. No rule for the calls is given here.

Common to all, as to assay: potency against CXCR6 with APJ panel – cell-based, beta-arrestin, DiscoveRx, uHTS hits, dose response (AID 624129)
The target of test [1] is C-X-C chemokine receptor type 6 (Homo sapiens) (UniProt O00574). The conditions noted are these: CXCR6 beta-arrestin (DiscoveRx) antagonist cell assay; for inhibition: CXCR6, run 1, dose range 2, at 80 µM (top of the series).
Sequence of C-X-C chemokine receptor type 6 (Homo sapiens) (O00574 whole entry, looked up): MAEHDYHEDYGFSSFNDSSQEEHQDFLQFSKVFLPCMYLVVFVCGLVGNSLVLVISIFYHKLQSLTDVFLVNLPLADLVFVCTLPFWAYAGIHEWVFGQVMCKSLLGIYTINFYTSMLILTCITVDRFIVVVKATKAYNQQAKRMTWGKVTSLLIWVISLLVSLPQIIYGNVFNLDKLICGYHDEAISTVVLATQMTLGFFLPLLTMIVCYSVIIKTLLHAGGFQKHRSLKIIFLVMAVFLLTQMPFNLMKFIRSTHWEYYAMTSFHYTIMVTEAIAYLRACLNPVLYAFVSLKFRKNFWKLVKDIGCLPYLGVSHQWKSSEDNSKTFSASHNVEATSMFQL
Test [2] deals with Apelin receptor (Homo sapiens) (UniProt P35414). Conditions: CXCR6 beta-arrestin (DiscoveRx) antagonist cell assay, APJ.
Test [3] deals with C-C chemokine receptor type 6 (Homo sapiens) (UniProt P51684). Conditions: CXCR6 beta-arrestin (DiscoveRx) antagonist cell assay.
Test [4] addresses Beta-galactosidase (Escherichia coli) (UniProt Q8VNN2). The conditions noted are these: CXCR6 beta-arrestin (DiscoveRx) antagonist cell assay, b-galactosidase.
The mark [5] stands for this setting: CXCR6, dose range 1, mean IC50 across replicates.
[6] abbreviates: dose range 1, mean IC50 across replicates.
[7] abbreviates: CCR6, dose range 1, mean IC50 across replicates.

Sequence of Beta-galactosidase (Escherichia coli) (Q8VNN2 whole entry, looked up): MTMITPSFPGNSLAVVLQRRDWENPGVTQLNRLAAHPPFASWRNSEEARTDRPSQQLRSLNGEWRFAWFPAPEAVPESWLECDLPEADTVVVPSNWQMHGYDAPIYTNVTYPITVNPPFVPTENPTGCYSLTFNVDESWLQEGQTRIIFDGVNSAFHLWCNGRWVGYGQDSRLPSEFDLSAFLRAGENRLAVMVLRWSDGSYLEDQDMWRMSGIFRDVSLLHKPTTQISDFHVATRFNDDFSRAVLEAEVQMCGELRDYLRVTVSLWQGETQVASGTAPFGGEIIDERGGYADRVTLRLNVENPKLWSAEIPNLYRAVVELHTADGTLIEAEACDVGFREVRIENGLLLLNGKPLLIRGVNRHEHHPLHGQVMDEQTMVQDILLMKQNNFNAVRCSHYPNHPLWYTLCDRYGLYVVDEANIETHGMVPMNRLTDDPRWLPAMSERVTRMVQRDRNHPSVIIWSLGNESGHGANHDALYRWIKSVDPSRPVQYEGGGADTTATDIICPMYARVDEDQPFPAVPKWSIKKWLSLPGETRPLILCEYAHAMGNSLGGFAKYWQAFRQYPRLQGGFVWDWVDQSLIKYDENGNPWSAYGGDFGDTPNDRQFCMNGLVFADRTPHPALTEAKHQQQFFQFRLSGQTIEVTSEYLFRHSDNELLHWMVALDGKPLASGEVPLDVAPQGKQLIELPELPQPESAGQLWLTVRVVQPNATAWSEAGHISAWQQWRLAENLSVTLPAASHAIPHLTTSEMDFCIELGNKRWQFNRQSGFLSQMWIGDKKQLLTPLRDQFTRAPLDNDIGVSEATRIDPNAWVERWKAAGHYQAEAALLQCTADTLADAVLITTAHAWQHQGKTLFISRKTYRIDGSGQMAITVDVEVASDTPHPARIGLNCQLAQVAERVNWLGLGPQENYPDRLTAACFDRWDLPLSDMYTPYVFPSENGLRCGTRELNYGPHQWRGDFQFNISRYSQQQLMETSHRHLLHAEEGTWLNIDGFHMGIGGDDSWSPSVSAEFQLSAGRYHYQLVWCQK

For `O=C1c2ccccc2C(=O)N1OS(=O)(=O)c1ccc(F)cc1`, the IC50 in test [1] (CXCR6, dose range 1) was > 80 µM (inactive); in test [1] (setting [5]), more than 80 µM; in test [1] (CXCR6, run 2, dose range 1) it was more than 80 µM; in test [2] (dose range 1), 20 µM; in test [2] (setting [6]), 22 µM; in test [2] (run 2, dose range 1), 26.8 µM. For the same molecule, the IC50 was 19.4 µM in test [2] (run 3, dose range 1); 17.7 µM in test [3] (CCR6, dose range 1); 34.6 µM in test [3] (setting [7]); 51.5 µM in test [3] (CCR6, run 2, dose range 1); > 80 µM (inactive) in test [4] (dose range 1); more than 80 µM in test [4] (setting [6]). Moreover, the inhibition in test [1] was found to be 69.8%.

Turning to `CC(=O)OCCCNc1cc(Sc2nc3ccccc3s2)c2nonc2c1[N+](=O)[O-]`, the IC50 in test [1] (setting [5]) was 8.69 µM; in test [1] (CXCR6, run 1, dose range 2), 8.09 µM; in test [1] (CXCR6, run 2, dose range 1) it was more than 80 µM; in test [1] (CXCR6, run 2, dose range 2), 9.29 µM; in test [2] (dose range 1) it was > 80 µM (inactive); in test [2] (setting [6]) it was more than 80 µM. The IC50 in test [2] (run 2, dose range 1) is more than 80 µM; in test [2] (run 3, dose range 1) it was more than 80 µM; in test [3] (CCR6, dose range 1) it was 6.38 µM; in test [3] (setting [7]), 30 µM; in test [3] (CCR6, run 2, dose range 1), 53.6 µM; in test [4] (dose range 1), > 80 µM (inactive). The molecule further registered an IC50 in test [4] (setting [6]) of more than 80 µM.

On to `CN(C)c1nc(=NCc2ccco2)ss1`, for which, in test [1] (CXCR6, dose range 1), the IC50 result is “inactive”. Besides, the IC50 was 55.9 µM in test [1] (setting [5]); 33.6 µM in test [1] (CXCR6, run 2, dose range 1); 31.8 µM in test [2] (dose range 1); 24.9 µM in test [2] (setting [6]); 18.1 µM in test [2] (run 2, dose range 1); more than 80 µM in test [2] (run 3, dose range 1). For the same molecule, the IC50 is 43.4 µM in test [3] (CCR6, dose range 1); 38.8 µM in test [3] (setting [7]); 34.2 µM in test [3] (CCR6, run 2, dose range 1); > 80 µM (inactive) in test [4] (dose range 1); more than 80 µM in test [4] (setting [6]). The molecule also returned an inhibition in test [1] of 82.8%.

`Cc1nnc(Sc2cc(NCCCO)c([N+](=O)[O-])c3nonc23)s1`: the half-maximal inhibitory concentration (IC50) was 7.25 µM in test [1] (CXCR6, dose range 1); 7.84 µM in test [1] (setting [5]); 8.37 µM in test [1] (CXCR6, run 1, dose range 2); 9.54 µM in test [1] (CXCR6, run 2, dose range 1); 6.2 µM in test [1] (CXCR6, run 2, dose range 2); 12.9 µM in test [2] (dose range 1). Further, the concentration for half-maximal inhibition (IC50) was 11.6 µM in test [2] (setting [6]); 11.3 µM in test [2] (run 2, dose range 1); 10.6 µM in test [2] (run 3, dose range 1); 8.94 µM in test [3] (CCR6, dose range 1); 8.16 µM in test [3] (setting [7]); 7.38 µM in test [3] (CCR6, run 2, dose range 1). The figures for the IC50 in test [4] (dose range 1) and in test [4] (setting [6]) were > 80 µM (inactive) and more than 80 µM, respectively.

For the molecule `O=C1C(Cc2ccccc2)Nc2ncnc(N3CCN(c4ccccc4)CC3)c2N1Cc1ccc(Br)cc1` (stereo unspecified), the IC50 in test [1] (CXCR6, dose range 1) was 1.37 µM; in test [1] (setting [5]), 1.23 µM; in test [1] (CXCR6, run 1, dose range 2), 1.42 µM; in test [1] (CXCR6, run 2, dose range 1), 0.993 µM; in test [1] (CXCR6, run 2, dose range 2), 1.13 µM; in test [2] (dose range 1) it was 1.2 µM. Moreover, the IC50 in test [2] (setting [6]) is 2.26 µM; in test [2] (run 2, dose range 1), 3.32 µM; in test [2] (run 3, dose range 1) it was more than 80 µM; in test [3] (CCR6, dose range 1), 1.67 µM; in test [3] (setting [7]), 1.55 µM; in test [3] (CCR6, run 2, dose range 1), 1.44 µM. The IC50 in test [4] (dose range 1) was > 80 µM (inactive); in test [4] (setting [6]), more than 80 µM.

`CCS(=O)(=O)c1ncc(Cl)c(C(=O)Nc2ccc(S(=O)(=O)N3CCCC(C)C3)cc2)n1` (stereo unspecified): the IC50 in test [1] (CXCR6, dose range 1) is 9.52 µM; in test [1] (setting [5]) it was 9.06 µM; in test [1] (CXCR6, run 1, dose range 2), 7.57 µM; in test [1] (CXCR6, run 2, dose range 1), 10.3 µM; in test [1] (CXCR6, run 2, dose range 2), 8.84 µM; in test [2] (dose range 1) it was 9.3 µM. Besides, the IC50 in test [2] (setting [6]) is 8.75 µM; in test [2] (run 2, dose range 1) it was 8.93 µM; in test [2] (run 3, dose range 1) it was 8.02 µM; in test [3] (CCR6, dose range 1), 6.92 µM; in test [3] (setting [7]), 7.16 µM; in test [3] (CCR6, run 2, dose range 1), 7.39 µM. For the same molecule, the IC50 in test [4] (dose range 1) is > 80 µM (inactive); in test [4] (setting [6]), more than 80 µM.
